Measurements published in patent publication US8192962B2, “Processes for detecting toxic substances” (Daikin Industries, Ltd., priority 2001, dated 2012).

Test system: Stress protein genes
Assay: DNA chip mRNA expression in yeast, stress protein genes (Table 6)
Format: cell-based, Saccharomyces cerevisiae S288C
Method: Yeast (Saccharomyces cerevisiae S288C (α SUC2mal mel gap2 CUP1)) were incubated at 25° C. on YPD medium (yeast extract 1%, polypepton 2%, glucose 2%). One of toxic chemical substances was added to the cells at logarithmic growth phase, and the cells were further incubated for two hours. Cells were cultured without any chemical substance in the same condition, and were used as control. Concentrations of the chemical substances were defined to inhibit the growth of the yeast but not lead to death.
After completion of the incubation, the culture was centrifuged to collect the cells. To the cells, sodium acetate buffer (50 mM sodium acetate, 10 mM EDTA, 1% SDS) was added, and the mixture was shaken at 65° C. for five minutes, followed by returning to room temperature, and obtaining the supernatant, of which the procedures were repeated two times. To the supernatant, ½ amount of a solution of phenol/chloroform was added, and the mixture was centrifuged to give a supernatant, which was added with an equal amount of chloroform, and the mixture was centrifuged to give a supernatant. To the supernatant, an equal amount of isopropanol containing 0.3 M sodium acetate was added, and the mixture was allowed to stand at room temperature for 30 minutes, after which the mixture was centrifuged to give a sediment of the whole RNAs. Seventy % ethanol was added to the sediment, and the mixture was again centrifuged to give a sediment, which was then dried and dissolved in water. mRNA was isolated from the whole RNAs as followings. In view of the fact that a poly A chain is attached to the 3′ terminus of mRNA, a polynucleotide having a poly T structure which was immobilized on the surface of latex beads was used to trap the mRNA, and then the mRNA was washed and eluted with spine column (Oligotex-dT30<Super>mRNA Purification Kit, Takara). Reverse transcription of the mRNA was conducted with a reverse transcriptase (Super Script II Reverse Transcriptase; catalogue No. 18064-014, GibcoBRL) using fluorescence-labeled nucleotides to give cDNAs that were introduced with Cy3-dUTP or Cy5-dUTP during the reverse transcription.
The labeled cDNAs were dissolved in TE buffer (10mM Tris-HCl/1 mM EDTA, pH8.0), and the solution was dropped on the DNA chip containing the whole genes of yeast (DNA Chip Research Inc. Japan) so that the cDNAs were hybridized on the DNA chip at 65° C. for over 12 hours. The fluoresces intensity of the DNA chip was read with a scanner, and the ratio relative to the fluorescence intensity resulting from the absence of chemical substance was estimated as the following, which is shown in Tables 1 to 9: […]

## CCCCC[C@H](O)CC(=O)CCc1ccc(O)c(OC)c1 [(13), gingerol]
Yeast gene YAL015C
  The level of expressed mRNA in the presence of chemical substance/The level of expressed mRNA in the absence of chemical substance: 1.2
Yeast gene YBL093C
  The level of expressed mRNA in the presence of chemical substance/The level of expressed mRNA in the absence of chemical substance: 2.1
Yeast gene YBR044C
  The level of expressed mRNA in the presence of chemical substance/The level of expressed mRNA in the absence of chemical substance: 1.2
Yeast gene YBR054W
  The level of expressed mRNA in the presence of chemical substance/The level of expressed mRNA in the absence of chemical substance: 1.5
Yeast gene YBR067C
  The level of expressed mRNA in the presence of chemical substance/The level of expressed mRNA in the absence of chemical substance: 0.9
Yeast gene YBR126C
  The level of expressed mRNA in the presence of chemical substance/The level of expressed mRNA in the absence of chemical substance: 2.1
Yeast gene YCL035C
  The level of expressed mRNA in the presence of chemical substance/The level of expressed mRNA in the absence of chemical substance: 2.8
Yeast gene YCR021C
  The level of expressed mRNA in the presence of chemical substance/The level of expressed mRNA in the absence of chemical substance: 0.9
Yeast gene YCR083W
  The level of expressed mRNA in the presence of chemical substance/The level of expressed mRNA in the absence of chemical substance: 1.8
Yeast gene YDL022W
  The level of expressed mRNA in the presence of chemical substance/The level of expressed mRNA in the absence of chemical substance: 1.5
Yeast gene YDL025C
  The level of expressed mRNA in the presence of chemical substance/The level of expressed mRNA in the absence of chemical substance: 1.2
Yeast gene YDR033W
  The level of expressed mRNA in the presence of chemical substance/The level of expressed mRNA in the absence of chemical substance: 0.7
Yeast gene YDR077W
  The level of expressed mRNA in the presence of chemical substance/The level of expressed mRNA in the absence of chemical substance: 1.0
Yeast gene YDR098C
  The level of expressed mRNA in the presence of chemical substance/The level of expressed mRNA in the absence of chemical substance: 1.2
Yeast gene YDR155C
  The level of expressed mRNA in the presence of chemical substance/The level of expressed mRNA in the absence of chemical substance: 3.3
Yeast gene YDR293C
  The level of expressed mRNA in the presence of chemical substance/The level of expressed mRNA in the absence of chemical substance: 2.3
Yeast gene YDR513W
  The level of expressed mRNA in the presence of chemical substance/The level of expressed mRNA in the absence of chemical substance: 1.8
Yeast gene YDR519W
  The level of expressed mRNA in the presence of chemical substance/The level of expressed mRNA in the absence of chemical substance: 2.5
Yeast gene YEL039C
  The level of expressed mRNA in the presence of chemical substance/The level of expressed mRNA in the absence of chemical substance: 0.5
Yeast gene YER042W
  The level of expressed mRNA in the presence of chemical substance/The level of expressed mRNA in the absence of chemical substance: 1.4
Yeast gene YER057C
  The level of expressed mRNA in the presence of chemical substance/The level of expressed mRNA in the absence of chemical substance: 1.0
Yeast gene YER125W
  The level of expressed mRNA in the presence of chemical substance/The level of expressed mRNA in the absence of chemical substance: 1.9
Yeast gene YFL014W
  The level of expressed mRNA in the presence of chemical substance/The level of expressed mRNA in the absence of chemical substance: 15.2
Yeast gene YFL016C
  The level of expressed mRNA in the presence of chemical substance/The level of expressed mRNA in the absence of chemical substance: 2.8
Yeast gene YFL020C
  The level of expressed mRNA in the presence of chemical substance/The level of expressed mRNA in the absence of chemical substance: 1.4
Yeast gene YFR052W
  The level of expressed mRNA in the presence of chemical substance/The level of expressed mRNA in the absence of chemical substance: 3.8
Yeast gene YGL073W
  The level of expressed mRNA in the presence of chemical substance/The level of expressed mRNA in the absence of chemical substance: 1.5
Yeast gene YGL115W
  The level of expressed mRNA in the presence of chemical substance/The level of expressed mRNA in the absence of chemical substance: 0.7
Yeast gene YGR088W
  The level of expressed mRNA in the presence of chemical substance/The level of expressed mRNA in the absence of chemical substance: 1.2
Yeast gene YHL028W
  The level of expressed mRNA in the presence of chemical substance/The level of expressed mRNA in the absence of chemical substance: 2.1
Yeast gene YHL046C
  The level of expressed mRNA in the presence of chemical substance/The level of expressed mRNA in the absence of chemical substance: 1.4
Yeast gene YHR030C
  The level of expressed mRNA in the presence of chemical substance/The level of expressed mRNA in the absence of chemical substance: 1.0
Yeast gene YHR057C
  The level of expressed mRNA in the presence of chemical substance/The level of expressed mRNA in the absence of chemical substance: 1.9
Yeast gene YHR104W
  The level of expressed mRNA in the presence of chemical substance/The level of expressed mRNA in the absence of chemical substance: 1.2
Yeast gene YIL011W
  The level of expressed mRNA in the presence of chemical substance/The level of expressed mRNA in the absence of chemical substance: 0.5
Yeast gene YIL033C
  The level of expressed mRNA in the presence of chemical substance/The level of expressed mRNA in the absence of chemical substance: 2.5
Yeast gene YIR037W
  The level of expressed mRNA in the presence of chemical substance/The level of expressed mRNA in the absence of chemical substance: 2.4
Yeast gene YIR038C
  The level of expressed mRNA in the presence of chemical substance/The level of expressed mRNA in the absence of chemical substance: 2.5
Yeast gene YJL128C
  The level of expressed mRNA in the presence of chemical substance/The level of expressed mRNA in the absence of chemical substance: 1.7
Yeast gene YJL159W
  The level of expressed mRNA in the presence of chemical substance/The level of expressed mRNA in the absence of chemical substance: 1.7
Yeast gene YJL165C
  The level of expressed mRNA in the presence of chemical substance/The level of expressed mRNA in the absence of chemical substance: 1.5
Yeast gene YJR045C
  The level of expressed mRNA in the presence of chemical substance/The level of expressed mRNA in the absence of chemical substance: 2.3
Yeast gene YJR090C
  The level of expressed mRNA in the presence of chemical substance/The level of expressed mRNA in the absence of chemical substance: 2.2
Yeast gene YKL161C
  The level of expressed mRNA in the presence of chemical substance/The level of expressed mRNA in the absence of chemical substance: 1.3
Yeast gene YKL163W
  The level of expressed mRNA in the presence of chemical substance/The level of expressed mRNA in the absence of chemical substance: 1.5
Yeast gene YKL164C
  The level of expressed mRNA in the presence of chemical substance/The level of expressed mRNA in the absence of chemical substance: 0.9
Yeast gene YKL210W
  The level of expressed mRNA in the presence of chemical substance/The level of expressed mRNA in the absence of chemical substance: 2.9
Yeast gene YKR053C
  The level of expressed mRNA in the presence of chemical substance/The level of expressed mRNA in the absence of chemical substance: 0.7
Yeast gene YLL039C
  The level of expressed mRNA in the presence of chemical substance/The level of expressed mRNA in the absence of chemical substance: 2.2
Yeast gene YLL060C
  The level of expressed mRNA in the presence of chemical substance/The level of expressed mRNA in the absence of chemical substance: 1.8
Yeast gene YLR006C
  The level of expressed mRNA in the presence of chemical substance/The level of expressed mRNA in the absence of chemical substance: 0.8
Yeast gene YLR109W
  The level of expressed mRNA in the presence of chemical substance/The level of expressed mRNA in the absence of chemical substance: 3.2
Yeast gene YLR259C
  The level of expressed mRNA in the presence of chemical substance/The level of expressed mRNA in the absence of chemical substance: 2.5
Yeast gene YML007W
  The level of expressed mRNA in the presence of chemical substance/The level of expressed mRNA in the absence of chemical substance: 1.7
Yeast gene YMR021C
  The level of expressed mRNA in the presence of chemical substance/The level of expressed mRNA in the absence of chemical substance: 1.4
Yeast gene YMR173W
  The level of expressed mRNA in the presence of chemical substance/The level of expressed mRNA in the absence of chemical substance: 2.0
Yeast gene YMR186W
  The level of expressed mRNA in the presence of chemical substance/The level of expressed mRNA in the absence of chemical substance: 2.4
Yeast gene YNL064C
  The level of expressed mRNA in the presence of chemical substance/The level of expressed mRNA in the absence of chemical substance: 1.1
Yeast gene YNR076W
  The level of expressed mRNA in the presence of chemical substance/The level of expressed mRNA in the absence of chemical substance: 0.9
Yeast gene YOL064C
  The level of expressed mRNA in the presence of chemical substance/The level of expressed mRNA in the absence of chemical substance: 2.0
Yeast gene YOL161C
  The level of expressed mRNA in the presence of chemical substance/The level of expressed mRNA in the absence of chemical substance: 1.2
Yeast gene YOR008C
  The level of expressed mRNA in the presence of chemical substance/The level of expressed mRNA in the absence of chemical substance: 0.9
Yeast gene YOR010C
  The level of expressed mRNA in the presence of chemical substance/The level of expressed mRNA in the absence of chemical substance: 0.5
Yeast gene YOR027W
  The level of expressed mRNA in the presence of chemical substance/The level of expressed mRNA in the absence of chemical substance: 5.1
Yeast gene YOR208W
  The level of expressed mRNA in the presence of chemical substance/The level of expressed mRNA in the absence of chemical substance: 1.5
Yeast gene YPL059W
  The level of expressed mRNA in the presence of chemical substance/The level of expressed mRNA in the absence of chemical substance: 0.7
Yeast gene YPL106C
  The level of expressed mRNA in the presence of chemical substance/The level of expressed mRNA in the absence of chemical substance: 3.1
Yeast gene YPL140C
  The level of expressed mRNA in the presence of chemical substance/The level of expressed mRNA in the absence of chemical substance: 0.9
Yeast gene YPL194W
  The level of expressed mRNA in the presence of chemical substance/The level of expressed mRNA in the absence of chemical substance: 1.4
Yeast gene YPL223C
  The level of expressed mRNA in the presence of chemical substance/The level of expressed mRNA in the absence of chemical substance: 2.3
Yeast gene YPL240C
  The level of expressed mRNA in the presence of chemical substance/The level of expressed mRNA in the absence of chemical substance: 2.9
Yeast gene YPR005C
  The level of expressed mRNA in the presence of chemical substance/The level of expressed mRNA in the absence of chemical substance: 0.7
Yeast gene YPR026W
  The level of expressed mRNA in the presence of chemical substance/The level of expressed mRNA in the absence of chemical substance: 2.3
